Assay results taken from patent US20240277711A1, “COMPOUNDS FOR THE TREATMENT OF GLIOBLASTOMA” (Merck Patent GmbH, priority 2021, published 2024).

Legend:
[1] = system: GL-261 met knock-out cells; test: GL-261 met knock-out glioma in wildtype mice; type: in vivo, mouse; settings: MET disrupted in tumor, tepotinib + 10 Gy
Method: (§1) Kaplan-Meier survival curves are shown. B, C. […] B. Kaplan-Meier survival curves were analyzed via log-rank test. C. Mice surviving in (B) were re-challenged after 13 weeks after initial tumor cell injection with GL-261 cell implantation into the contralateral hemisphere. Naïve mice implanted with GL-261 cells were used as controls. Kaplan-Meier survival curves are shown. D, E. GL-261 met knock-out cells were intracranially implanted into wildtype C57/B16 mice (D) or GL-261 wildtype cells were intracranially implanted into C57/B16 Rag1−/− mice (E). […] F. Analysis of median survival between treatment groups.
Knockout clones were generated as described (Ran et al., 2013; Machado et al., 2019). Briefly, two MET-specific guide RNAs (5′-[…]-3′ and 5′-[…]-3′) were cloned into pSpCas9(BB)-2A-GFP and lipofectamine (Thermo) was used to co-transfect both plasmids. […]
All in vitro and in vivo experiments reported here were performed in biological replicates, i.e., in independent experiments and with different passage numbers of cell lines. Statistical significance was assessed by two-sided unpaired t-test or two-way ANOVA with Bonferroni post-testing (GraphPad Prism). Tumor size was analyzed using the Mann-Whitney U non-parametric test. Survival was analyzed using a Kaplan-Meier survival plot followed by a log-rank (Mantel-Cox) test. […]

[2] = system: ligand-independent Hs746T tumors; settings: before tumor became resistant and progressed; cited from earlier work
[3] = system: HGF-dependent U87MG tumors; settings: before tumor became resistant and progressed; cited from earlier work
[4] = system: mouse glioma cell lines; test: Acute growth inhibition assay (MTT) in mouse glioma cell lines; type: cell-based; settings: concentrations up to 1 μM
[5] = system: glioma cells; test: Sensitization to irradiation in vitro (clonogenic survival); type: cell-based, mouse
[6] = system: SMA-560 gliomas; test: Orthotopic syngeneic SMA-560 glioma model in vivo (survival, histology); design: species or system mouse
Method: B. Kaplan-Meier survival curve. C. […] Sections were counterstained with hematoxylin (blue).
Sections (8 μm thick) of tumor-bearing cryopreserved brains were prepared. The mean tumor size was determined by the largest tumor area in the horizontal plane on hematoxylin and eosin (H&E)-stained sections by multiplying the longest perpendicular diameters from a low-magnification (2.5×) image. Brain sections were immunostained with Ki-67 antibody (clone SP6, Epitomics, Burlingame, CA), anti-mouse CD31 antibody (clone MEC 13.3, BD Pharmingen, Franklin Lakes, NJ), anti-CD45 antibody (clone 30-F11; BioLegend), anti-CD3 (clone 17A2; BD Biosciences, San Jose, CA) or anti-CD11b (clone M1/70; BD Biosciences) and histofine simple stain mouse max pro anti-rabbit secondary antibody (Nichirei Biosciences, Tokyo, Japan) to determine proliferation. Anti-rat N-Histofine Simple Stain Mouse MAX PO (Nichirei Biosciences) and DAB chromogen were used to stain blood vessels. The percentage of Ki-67-positive tumor nuclei and the mean number of CD31-positive intratumoral vessels per high power field (×40 objective) were calculated using three randomly selected different microscopic fields of each section for three 3 mice per group. Alternatively, DAB-positive signals were quantified using the ImageJ software (https://imagej.nih.gov/) (Crowe and Yue, 2019).
(§2) All in vitro and in vivo experiments reported here were performed in biological replicates, i.e., in independent experiments and with different passage numbers of cell lines. Statistical significance was assessed by two-sided unpaired t-test or two-way ANOVA with Bonferroni post-testing (GraphPad Prism). Tumor size was analyzed using the Mann-Whitney U non-parametric test. Survival was analyzed using a Kaplan-Meier survival plot followed by a log-rank (Mantel-Cox) test. Differences were considered statistically significant when the p value was below 0.05.

[7] = system: mouse glioma cell lines; test: Clonogenic survival (clonogenicity) assay in mouse glioma cell lines; type: cell-based; settings: concentrations up to 1 μM
[8] = system: GL-261 glioma; test: GL-261 glioma in Rag1−/− mice; type: in vivo, mouse; settings: tepotinib + 10 Gy
Method: as §1, §2

[9] = system: SMA-560 gliomas; test: SMA-560 glioma in immunodeficient Rag1−/− mice; type: in vivo, mouse; settings: tepotinib 100 mg/kg daily + 10 Gy
[10] = system: GL-261 glioma; test: Orthotopic syngeneic GL-261 glioma model in wildtype mice; type: in vivo, mouse
Method: as §1, §2

[11] = system: murine glioma cell invasiveness; test: Murine glioma cell invasiveness in vitro without or with irradiation; type: cell-based, mouse; settings: without or with irradiation (2 Gy, 8 Gy)
Source text: Next, we evaluated the motogenic activity of HGF/MET in response to irradiation in vitro. Low-dose irradiation (2 Gy) increased invasiveness in SMA-540 and SMA-560 cells whereas high-dose irradiation (8 Gy) reduced invasiveness in SMA-497 and SMA-560 cells.

[12] = system: mouse cytokines; test: Proteome profiler cytokine array of SMA-560 tumor lysates ex vivo; type: in vivo
Method: In A, raw data are expressed as pixel density measured by Image J. In B, fold-changes indicate down-regulation (left) or up-regulation (right) versus control tumors. A difference down or up of 2-fold versus control was used as cut-off to assign a target to any group.
For the simultaneous determination of relative levels of mouse cytokines in vivo, the Mouse XL Cytokine Array Kit from R&D Systems was used (ARY028, Minneapolis, MN). Tissue lysates were prepared by electric homogenizer in ice-cold lysis buffer and supplemented with protease inhibitor cocktail, followed by centrifugation to remove cellular debris; 150 μg protein was used for each tumor sample and nitrocellulose membrane (control, monotherapies, combination therapy). To compare the proportion of protein levels in each tumor specimen, the quantification of pixel density of each spot of the array was performed using Image J (version 1.32j) software (National Institutes of Health, Bethesda, MD, http://rsb.info.nih.gov/ij/).

[13] = system: glioblastoma; settings: in vivo; cited from earlier work
[14] = combination group (tepotinib + radiotherapy)

CN1CCC(COc2cnc(-c3cccc(Cn4nc(-c5cccc(C#N)c5)ccc4=O)c3)nc2)CC1 [tepotinib, 3-(1-{3-[5-(1-methyl-piperidin-4-ylmethoxy)-pyrimidin-2-yl]-benzyl}-6-oxo-1,6-dihydro-pyridazin-3-yl)-benzonitrile]
synergy of irradiation with tepotinib [1]: synergy was also lost | tumor growth inhibition and regression [2]: Tumor growth inhibition and regression of tumors by tepotinib was temporarily observed | tumor growth inhibition and regression [3]: Tumor growth inhibition and regression of tumors by tepotinib was temporarily observed | acute growth inhibition [4]: resistant to inhibitory effects of tepotinib | sensitization to inhibitory effects of irradiation in vitro ([5]; concentrations known to inhibit MET phosphorylation (100 nM)): failed to sensitize glioma cells to the inhibitory effects of irradiation | sensitization to irradiation in presence of exogenous HGF ([5]; with exogenous HGF (50 ng/ml)): no sensitization to irradiation by tepotinib became apparent | reduction in CD31 immunoreactivity ([6]; combination arm (tepotinib + radiotherapy)): 2.8 fold | Ki-67-positive cells [6, 14]: strong decrease of Ki-67-positive cells | mice alive and free from tumor at day 80 [6, 14]: three | survival ([6]; combination with radiotherapy (single dose 12 Gy)): around 60 days | survival ([6]; monotherapy): around 20 days | reduction in CD31 immunoreactivity ([6]; monotherapy arm): 1.8 fold | percentage of Ki-67-stained nuclei ([6]; monotherapy group): remained unaffected | effect on survival ([6]; tepotinib alone, 100 mg/kg daily): Neither tepotinib alone nor radiotherapy alone had a significant effect on survival | mice alive and free from tumor at day 80 ([6]; tepotinib group): one | clonogenicity [7]: resistant to inhibitory effects of tepotinib | synergy of irradiation with tepotinib [8]: synergy with tepotinib was lost | synergistic effect of combination therapy on survival [9]: strongly attenuated | long-term survivors ([10]; co-treatment group): approximately 50% | survival ([10]; combination therapy (tepotinib + 10 Gy), wildtype mice): prominent survival prolongation | outcome of rechallenge of long-term survivors with GL-261 cells ([10]; rechallenge at 90 days, followed another 50 days): all 4 animals remained asymptomatic | invasiveness [11]: suppressed invasiveness in all cell lines without or with irradiation, except in low dose-irradiated SMA-540 cells | irradiation-induced cytokines (VEGF, ICAM-1, MMP-2/-9, IL-1a, CXCL10 etc.) ([12]; combination with irradiation): an induction upon irradiation that was attenuated by tepotinib | cytokine levels in tumor tissue lysates ([12]; tepotinib monotherapy): reduced the levels of some cytokines

AMG-102: HGF antibody
efficacy outcome in glioblastoma [13]: negative outcomes

onartuzumab: MET antibody
efficacy outcome in glioblastoma [13]: negative outcomes
